Where two headings read alike, the source gives them in different places.
How the values were obtained:
[1] = target: T1, PBP3 (PaPBP3) (Pseudomonas aeruginosa, UniProt G3XD46); assay: biochemical; parameters: S2d thioester turnover with DTNB, absorbance 412 nm, residual activity after 1 h pre-incubation; settings: read-out: Residual Activity by S2d Turnover (%)
T1 construct: gene ftsI; residues 50–579
Procedure: Residual activities were measured by the ability of a potential inhibitor to hinder hydrolysis of the substrate analogue S2d (2-((benzoyl-D-alanyl)thio)acetic acid) turnover by PaPBP3 as described for other PBPs.[4],[24],[53],[54] Assays were conducted in 50 μL in a 384-well, clear-bottom, black-walled microplate (Greiner Bio-One). PaPBP3 (400 nM) was incubated with 2 mM of each compound for 1 h at 30 °C in 100 mM sodium phosphate, pH 7, supplemented with 0.01% (v/v) triton. A solution of 5,5′-dithiobis-(2-nitrobenzoic acid) and S2d diluted in the same buffer (to give a final concentration in the assay of 1 mM for both reagents) was added to each well to initiate the reaction. The final concentration of protein was 200 nM and the final inhibitor concentration was 1 mM. A ClarioStar plate reader (BMG Labtech) was used to follow the reaction by observing the change in absorbance at 412 nm at 30 °C. […] The initial rate of S2d turnover was calculated using GraphPad prism (Prism 8 for macOS, GraphPad Software LLC) and the standard error calculated from three independent technical replicates. The rate of non-enzymatic S2d hydrolysis was subtracted from each rate to find the corrected rate. For each compound, the ratio of the corrected rate to the untreated control corrected rate was expressed as a percentage to give the residual activity. [drawing 2] Table 1 Residual Activities and Kis of Compounds Tested in the BOCILLIN FL Competition Assay for Binding to PaPBP3 and Residual Activities Measured in S2d Turnover Assays ^a a For both BOCILLIN FL FA and S2d assays, residual activities in the presence of a 1 mM inhibitor are a percentage of the activity of the untreated control. Errors are standard errors (n = 3) from independent measurements. b Residual activity measured at 100 μM due to solubility issues at 1 mM. Ki, calculated with 11 concentrations of each compound and determined using global fitting in Kintek Global Explorer.[52],[59]

[2] = target: T1, PBP3 (PaPBP3); assay: biochemical; parameters: BOCILLIN FL fluorescence anisotropy, residual PBP3 binding after 1 h pre-incubation with compound; settings: read-out: Residual Activity by BOCILLIN FL FA (%)
Procedure: Unless otherwise stated, assays were run in triplicate using a 60 nM purified protein (see above), 30 nM BOCILLIN FL in pH 7 100 mM sodium phosphate buffer, with 0.01% Triton to reduce promiscuous ligand binding[23] and reduce binding of the protein to the plate. Assays were run in triplicate in a volume of 50 μL, in black, flat-bottom, 384-well microplates (Grenier Bio-One, Austria) at 30 °C. The change in FA was measured using a ClarioStar plate reader (BMG Labtech) with polarized filters at excitation: 482–16, emission: F: 530–4, and calculated using MARS software v3.32 (BMG Labtech) using the equation [drawing 1] where Fpara is the fluorescence intensity parallel to the excitation plane and Fperp is fluorescence intensity perpendicular to the excitation plane. Residual activities were determined by pre-incubating the test compound (1024 μM) and protein for 1 h at 30 °C before the reaction was initiated by the addition of BOCILLIN FL. The change in FA after 30 min was compared to the uninhibited control to determine the residual activity. In order to calculate Ki, the compound (at 11 concentrations: 1–1024 μM) and BOCILLIN FL were mixed and the reaction was initiated by the addition of PBP. Also included in the model were progress curves of nine concentrations of PBP (40–110 nM). Inhibition plots with meropenem and ceftazidime were done to ensure the correct parameters for BOCILLIN FL binding were used. Progress curves were analyzed with KinTek, USA, as described;[52],[69] reported errors represent the standard error. The acylation of a PBP by BOCILLIN FL (Figure S1) can be described by a simple one-step model.[52] However, unlike the previous studies, we found it was necessary to include a term (k2) to account for the deacylation of BOCILLIN FL to release a hydrolyzed product (Figure S1). The fluorescence intensity was constant throughout the reaction. Inhibitor binding was modeled as a reversible reaction to form the enzyme–inhibitor complex (Figure S1). Ki was calculated as the ratio of the off-rate koff to the on-rate kon (Figure S1). Table 1 Residual Activities and Kis of Compounds Tested in the BOCILLIN FL Competition Assay for Binding to PaPBP3 and Residual Activities Measured in S2d Turnover Assays ^a a For both BOCILLIN FL FA and S2d assays, residual activities in the presence of a 1 mM inhibitor are a percentage of the activity of the untreated control. Errors are standard errors (n = 3) from independent measurements. b Residual activity measured at 100 μM due to solubility issues at 1 mM. Ki, calculated with 11 concentrations of each compound and determined using global fitting in Kintek Global Explorer.[52],[59]

[3] = target: T1, PBP3 (PaPBP3); assay: crystal structure; BOCILLIN FL fluorescence anisotropy competition (Ki); type: biochemical
[4] = target: T1, PBP3 (PaPBP3); assay: biochemical; parameters: BOCILLIN FL competition fluorescence anisotropy, progress curves globally fitted in KinTek to reversible one-step model; settings: BOCILLIN FL competition
Procedure: Unless otherwise stated, assays were run in triplicate using a 60 nM purified protein (see above), 30 nM BOCILLIN FL in pH 7 100 mM sodium phosphate buffer, with 0.01% Triton to reduce promiscuous ligand binding[23] and reduce binding of the protein to the plate. Assays were run in triplicate in a volume of 50 μL, in black, flat-bottom, 384-well microplates (Grenier Bio-One, Austria) at 30 °C. The change in FA was measured using a ClarioStar plate reader (BMG Labtech) with polarized filters at excitation: 482–16, emission: F: 530–4, and calculated using MARS software v3.32 (BMG Labtech) using the equation [drawing 1] where Fpara is the fluorescence intensity parallel to the excitation plane and Fperp is fluorescence intensity perpendicular to the excitation plane. Residual activities were determined by pre-incubating the test compound (1024 μM) and protein for 1 h at 30 °C before the reaction was initiated by the addition of BOCILLIN FL. […] Progress curves were analyzed with KinTek, USA, as described;[52],[69] reported errors represent the standard error. […] The fluorescence intensity was constant throughout the reaction. […] Ki was calculated as the ratio of the off-rate koff to the on-rate kon (Figure S1). 1–15 were screened for PaPBP3 inhibition at 1 mM using an established fluorescence anisotropy (FA) assay.[52] […]

T1 sequence (G3XD46 50-579): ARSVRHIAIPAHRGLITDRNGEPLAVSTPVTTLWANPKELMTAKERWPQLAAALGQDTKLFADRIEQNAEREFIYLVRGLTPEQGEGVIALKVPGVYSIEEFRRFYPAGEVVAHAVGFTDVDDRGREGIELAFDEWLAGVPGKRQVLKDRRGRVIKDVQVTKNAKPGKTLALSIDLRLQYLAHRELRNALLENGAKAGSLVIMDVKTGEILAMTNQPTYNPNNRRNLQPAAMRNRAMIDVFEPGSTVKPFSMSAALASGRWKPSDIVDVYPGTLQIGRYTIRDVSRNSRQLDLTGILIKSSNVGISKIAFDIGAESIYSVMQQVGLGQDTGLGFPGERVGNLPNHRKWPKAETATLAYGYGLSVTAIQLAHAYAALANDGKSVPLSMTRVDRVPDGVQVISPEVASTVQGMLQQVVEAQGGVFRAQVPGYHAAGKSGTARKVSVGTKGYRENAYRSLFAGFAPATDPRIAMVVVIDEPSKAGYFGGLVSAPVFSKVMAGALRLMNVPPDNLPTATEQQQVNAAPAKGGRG

Row | SMILES | remaining activity at 1000 µM [1] | remaining activity at 1000 µM [2] | Ki [3] | Ki [4]
1 | O=C(O)c1ccc2c(c1)B(O)OC2 [compound 3] | 57.8 ± 0.6% | 75 ± 1% | – | –
2 | CNC(=O)CNC(=O)c1ccc2c(c1)B(O)OC2 [compound 5] | > 90% | > 90% | – | –
3 | O=C(O)CC1OB(O)c2ccc(OCc3ccccc3)cc21 (centres unmarked) [compound 15, 2-(5-(Benzyloxy)-1-hydroxy-1,3-dihydrobenzo[c][1,2]oxaborol-3-yl)acetic Acid] | – | – | 78.1 ± 0.9 µM | –
4 | O=C(O)C[C@@H]1CC[C@H](NC(=O)Cc2cccs2)B(O)O1 [vaborbactam] | 75.8 ± 0.7% | 54 ± 5% | – | 201 ± 2.3 µM
5 | NC(=O)[C@H](NC(=O)c1ccc2c(c1)B(O)OC2CC(=O)O)c1ccccc1 (some centres unmarked) [compound 12, 12] | 19.6 ± 0.4% | 16 ± 6% | 73.9 ± 0.8 µM | –
6 | NC(=O)[C@@H](Cc1ccccc1)NC(=O)c1ccc2c(c1)B(O)OC2 [compound 6] | > 90% | > 90% | – | –
7 | COC(=O)[C@H](NC(=O)c1ccc2c(c1)B(O)OC2)c1ccccc1 [compound 7] | > 90% | > 90% | – | –
8 | O=C1CN(C(=O)[C@@H](Cc2ccccc2)NC(=O)c2ccc3c(c2)B(O)OC3)CCN1 [compound 11] | 80.9 ± 1.3% | 84 ± 1% | – | –
9 | CN1CCN(C(=O)CNC(=O)c2ccc3c(c2)B(O)OC3CC(=O)O)CC1=O (centres unmarked) [compound 13, 13] | 47.5 ± 0.6% | 42 ± 6% | 172 ± 3 µM | –

Reference: paper PMC9282634, “High-Throughput Crystallography Reveals Boron-Containing Inhibitors of a Penicillin-Binding Protein with Di- and Tricovalent Binding Modes” (Journal of Medicinal Chemistry, 2021)
